Test results reported in article PMC9448371, “Synthesis and biological activity evaluation of 3-(hetero) arylideneindolin-2-ones as potential c-Src inhibitors” (Journal of Enzyme Inhibition and Medicinal Chemistry, 2022).
“Also recorded” adds a separate entry of the source.

Experiments:
[1] = test system: human MCF7 breast cancer cell line; assay: Cytotoxicity, growth inhibition MTS assay; assay type: cell-based; conditions: mean ± SD, triplicate; for IC50: Homo sapiens, MCF7, 72 h exposure, read-out: MCF-7 (IC50)
Protocol: Cytotoxicity experiments were carried out using the human MCF7 breast cancer cell line (ATCC HTB-22). […] Compound potency was determined by a growth inhibition assay (CellTiter 96® Aqueous One Solution Cell Proliferation Assay MTS, Promega). 24 h after seeding in a 96-well plate, cells were exposed to the compounds (concentration range 1–100 µM) and 72 h later, 20 µL of 3–(4,5-dimethylthiazol-2-yl)-5–(3-carboxymethoxyphenyl)-2–(4-sulfophenyl)-2H-tetrazolium salt (MTS) was added to each well. […] Experiments were performed in triplicate.

[2] = target: T1, c-Src (Homo sapiens, UniProt P12931); assay: c-Src kinase inhibition assay (ADP-Glo Kinase Assay); assay type: biochemical; conditions: Table 3; for inhibition at 10 µM: 10 µM compound; for inhibition at 100 µM: read-out: % Inhibition 100 µM; for IC50: 100 μM ATP, read-out: ID50 (the source's name)
T1 construct: His6 (N); purchased Merck-Millipore 14–326
T1 sequence (P12931 whole entry): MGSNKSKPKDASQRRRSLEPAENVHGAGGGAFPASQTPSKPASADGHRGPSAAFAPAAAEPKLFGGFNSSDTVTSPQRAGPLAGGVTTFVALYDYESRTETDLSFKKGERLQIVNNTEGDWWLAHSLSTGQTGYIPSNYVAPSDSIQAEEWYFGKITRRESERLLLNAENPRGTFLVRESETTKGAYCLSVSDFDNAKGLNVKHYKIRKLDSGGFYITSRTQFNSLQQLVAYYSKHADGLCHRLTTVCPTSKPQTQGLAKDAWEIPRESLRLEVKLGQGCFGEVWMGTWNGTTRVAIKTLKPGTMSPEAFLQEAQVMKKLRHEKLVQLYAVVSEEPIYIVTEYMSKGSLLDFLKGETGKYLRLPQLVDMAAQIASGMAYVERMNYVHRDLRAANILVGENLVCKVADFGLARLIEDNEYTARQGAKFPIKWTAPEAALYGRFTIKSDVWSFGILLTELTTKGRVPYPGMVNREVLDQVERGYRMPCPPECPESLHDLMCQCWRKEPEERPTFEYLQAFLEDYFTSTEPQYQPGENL
Protocol: To avoid peptide adsorption to the plastic surface, protein low-binding tubes were used. ADP-Glo Kinase Assay (Promega) was then used to detect kinase activity accordingly with manufacturer’s instruction with minor modifications. In details, reactions were transferred to white 384 well-plates and stopped by adding 10 µL of ADP-Glo Reagent (Promega) for 50 min at rt. 20 μL of Detection Reagent (Promega) was then added for 30 min and the reaction read using GloMax Discover microplate reader (Promega). Data were plotted using GraphPad Prism 5.0. […] Compounds tested were assumed to act as fully ATP-competitive inhibitors. Therefore, Ki values were calculated accordingly to Equation (2).

[3] = 100 µM compound, tested as E/Z mixtures

inhibition at 10 µM ([2]; tested as E/Z mixtures) [%]	% Inhibition 100 µM ([2]; 100 µM compound, tested as E/Z mixtures, 100 µM)	inhibition at 100 µM [2, 3] [%]	IC50 [2] [µM]	melting point	Ki ([2]; calculated from ID50 assuming fully ATP-competitive inhibition) [µM]	Compound	IC50 [1] [µM]	MCF-7 (IC50, μM) ([1]; 72 h exposure)
71.7 ± 2.27	good activity	80.8 ± 6.47	3.24	158 to 159 °C		CCOC(=O)COc1ccc(C=C2C(=O)Nc3cc(Cl)ccc32)cc1 [Compound 43, Ethyl 2–(4-((6-chloro-2-oxoindolin-3-ylidene)methyl)phenoxy) acetate]	85 ± 2	
53.9 ± 26.6		76.8 ± 9.22	> 10	262 to 263 °C (dec.)		O=C1Nc2cc(Cl)ccc2C1=Cc1cnc(Br)s1 [Compound 49, 3-((2-bromothiazol-5-yl)methylene)-6-chloroindolin-2-one]	33 ± 2	potency comparable to Dasatinib; also recorded: cytotoxicity comparable to that of the reference compound Dasatinib
41.2 ± 1.12		96.1 ± 1.42	9.14	238 to 239 °C	6.17	O=C1Nc2cc(Cl)ccc2C1=Cc1ccc2[nH]ccc2c1 [Compound 50, 3-((1H-indol-5-yl)methylene)-6-chloroindolin-2-one]	68 ± 2	
